Reference: US20120282710A1, “LIGAND BINDING DOMAINS OF NUCLEAR RECEPTORS IN CONTROLLABLE FORM AND METHODS INVOLVING THE SAME” (SANOFI, priority 2007, published 2012)
pEC50: −log10 of the molar value. Where a name gives a salt, the structure may show the parent alone.

How the values were obtained:
[1] = target: T1, 6×His-RORalphaLBD protein (Homo sapiens, UniProt P35398); test: TR-FRET assay measuring RORalphaLBD interaction with the LXXLL peptide SRC1−NR1+2, Example 2; assay type: biochemical; settings: for binding of co-activator peptide SRC1−NR1+2 to RORα (increase in fluorescence intensity ratio): FIG. 2, increasing concentrations versus solvent only
T1 construct: made in house; host or cells: Sf9 insect cells (baculovirus, pVL1393)
T1 sequence (P35398 with tags, fused parts or gaps): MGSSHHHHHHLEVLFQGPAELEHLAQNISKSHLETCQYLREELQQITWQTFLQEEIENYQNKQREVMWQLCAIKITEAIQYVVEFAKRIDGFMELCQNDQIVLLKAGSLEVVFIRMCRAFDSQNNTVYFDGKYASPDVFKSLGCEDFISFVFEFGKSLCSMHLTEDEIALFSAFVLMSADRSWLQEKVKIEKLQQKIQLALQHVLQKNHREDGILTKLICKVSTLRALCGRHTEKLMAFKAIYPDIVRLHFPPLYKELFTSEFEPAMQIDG
Description: In this assay, RORα is detected by a specific antibody bound to FRET donor Europium (Eu). The co-activator (CA) is biotin labeled. The biotin label is detecting by streptavidin, which encompasses the FRET acceptor allophycocyanin (APC) marker. If an agonist is bound to RORα, the NR is activated a CA binds to the NR. Accordingly, APC is brought into proximity of Eu, leading to a detecting FRET signal (left panel).
TR-FRET Assay Measuring RORalphaLBD Interaction with the LXXLL Peptide, SRC1−NR1+2
• 6×His-RORalpha: • source: Protein Production (Lab. Thomas Langer) treated with 3 mM LDS, stock solution at 1.5 mg/ml, storage at −20° C., pipetting at room temperature, corresponding to 47.5 μM (with MW 31.6 kD), Concentration in the assay=20 nM • SRC1−NR1+2: • source: JPT Peptide Technologies, stock solution at 250 μM, storage at −20° C., concentration in the assay=400 nM
• anti-6×His antibody: • source: Perkin Elmer #AD0110, stock solutions are at varying concentration with each batch, storage at −20° C., concentration in the assay=20 nM • strep-APC: • source: Perkin Elmer #AD0201, stock solutions are at varying concentration with each batch, storage at +4° C. after reconstitution, concentration in the assay=200 nM (based on streptavidin)
• Cholesterol sulfate: • source: SIGMA #C9523, stock solution in DMSO (30 mM), storage at −20° C.
• 50 mM Tris, 100 mM NaCl, 1 mM DTT, 0.1% Bovine Serum Albumin (add BSA fresh each day), adjust pH to 7.4
• Test plates: CORNING Costar #3639 (96 well half area)
All proteins, labels and compounds were diluted in the assay buffer just prior to assay setup. This assay was realised in 96 well half area plates. The final test volume was 20 μl. It is divided in 2 pipetting steps:
First, a mix containing 6×His-RORalphaLBD protein, BiotinSRC1−NR1+2 peptide, anti-6×His antibody and strep-APC was prepared on ice in the following concentrations: […]
The plates were incubated for 2 h in subdued light at room temperature and read on a Tecan ULTRA at room temperature with 340 nm excitation and 612 nm as Europium reference and 665 nm as APC FRET signal.

[2] = target: T2, RORαLBD protein (Homo sapiens, UniProt P35398); test: co-factor recruitment fluorescence resonance energy transfer assay (FRET), Example 1; assay type: biochemical; settings: for co-factor recruitment (fluorescence ratios at 665 nm and 612 nm): time resolved measurement, 20 nM RORαLBD, 400 nM biotin-labeled peptide, 2 hrs
T2 construct: made in house; host or cells: Sf9 insect cells (baculovirus, pVL1393)
T2 sequence (P35398 with tags, fused parts or gaps): T1 sequence (P35398 with tags, fused parts or gaps)
Protocol: 20 nM RORαLBD protein labeled with equimolar amounts of fluorescent anti-6×His antibody were incubated with 400 nM of the respective biotin-labeled peptide and equimolar amounts of a streptavidin-tagged fluorophore in a buffer containing 50 mM Tris, 100 mM NaCl, 1 mM DTT and 0.1% BSA for 2 hrs.

CC(C)CCC[C@@H](C)[C@H]1CC[C@H]2[C@@H]3CC=C4C[C@@H](OS(=O)(=O)O)CC[C@]4(C)[C@H]3CC[C@]12C [Cholesterol sulfate]
pEC50 [1]: ~5.00
binding of co-activator peptide SRC1−NR1+2 to RORα (increase in fluorescence intensity ratio) [1]: dose-dependently induce binding
pEC50 [2]: 4.66
co-factor recruitment (fluorescence ratios at 665 nm and 612 nm) [2]: dose-dependent co-factor recruitment

CC(C)CCC[C@@H](C)[C@H]1CC[C@H]2[C@@H]3CC=C4C[C@@H](O)CC[C@]4(C)[C@H]3CC[C@]12C [Cholesterol]
binding of co-activator peptide SRC1−NR1+2 to RORα (increase in fluorescence intensity ratio) [1]: dose-dependently induce binding
co-factor recruitment (fluorescence ratios at 665 nm and 612 nm) [2]: dose-dependent co-factor recruitment
